Measured values: paper PMC11078746 (Nature, 2024)

Assays:
CYP3A4 = CYP3A4 (Homo sapiens, UniProt P08684); experiment: CYP3A4 TDI; type: in vitro ADME
NUGC3 = experiment: 4 day proliferation assay (CellTiter-Glo); conditions: Homo sapiens, NUGC-3, 96 h, read-out: 4 day assay GI50
SW48 xenografts = experiment: SW48 xenograft efficacy, HRO761, irinotecan and combination; type: in vivo, mouse
Protocol: All animal studies were conducted in accordance with ethics and procedures covered by permit BS-2275 and BS-1975 issued by the Kantonales Veterinäramt Basel-Stadt and in strict adherence to guidelines of the Eidgenössisches Tierschutzgesetz and the Eidgenössische Tierschutzverordnung, Switzerland. All animal studies were approved by the internal ethics committee. All animals had access to food and water ad libitum and were identified with transponders. They were housed in a specific-pathogen-free facility in IVC racks under a 12 h–12 h light–dark cycle. To establish cell-line-derived xenograft models, 6–7-week-old female athymic nude (Crl:NU(NCr)-Foxn1^nu) or SCID-BEIGE (CB17.Cg-PrkdcscidLystbg-J/Crl) mice from Charles River were engrafted subcutaneously with 5 million tumour cells in HBSS (H6648, Sigma-Aldrich). For SNU-407, Lovo, IM95, RL95.2, Ishikawa and IGROV-1, the cells were concentrated in 50% Matrigel (354234, Corning). Patient-derived xenografts were induced and expanded by transplantation as previously described. […] For the efficacy experiment, mice were randomized into groups (n = 5–6) for a mean tumour size of 100–150 mm^3. […] Blood samples were collected on day 7 and 91. […] Tumour responses are reported with the measures of tumour volumes from the treatment start. […] Animals were randomized (n = 3) and tumour samples were collected at 0, 1, 4, 8 and 24 h on the first day and then collected 4 h after the last treatment on day 3, 8, 10, 14 (including a 24 h timepoint), 17 and 21. Tumours were excised, weighed, either frozen in liquid nitrogen and cryogenic dry pulverized with the CryoPrep system (model CP-02, Covaris) or processed to FFPE after fixation. […] On day 12, blood samples were collected for PK analysis. On the last day (3 h after the last treatment), tumours were excised, weighed, frozen in liquid nitrogen and cryogenic dry pulverized for PD analysis.

LS180 = experiment: CFA 10-14 day clonogenic assay; type: cell-based; conditions: Homo sapiens
IM95 = experiment: CFA 10-14 day clonogenic assay; type: cell-based; conditions: Homo sapiens

Chain of CYP3A4 (P08684 whole entry, species assumed): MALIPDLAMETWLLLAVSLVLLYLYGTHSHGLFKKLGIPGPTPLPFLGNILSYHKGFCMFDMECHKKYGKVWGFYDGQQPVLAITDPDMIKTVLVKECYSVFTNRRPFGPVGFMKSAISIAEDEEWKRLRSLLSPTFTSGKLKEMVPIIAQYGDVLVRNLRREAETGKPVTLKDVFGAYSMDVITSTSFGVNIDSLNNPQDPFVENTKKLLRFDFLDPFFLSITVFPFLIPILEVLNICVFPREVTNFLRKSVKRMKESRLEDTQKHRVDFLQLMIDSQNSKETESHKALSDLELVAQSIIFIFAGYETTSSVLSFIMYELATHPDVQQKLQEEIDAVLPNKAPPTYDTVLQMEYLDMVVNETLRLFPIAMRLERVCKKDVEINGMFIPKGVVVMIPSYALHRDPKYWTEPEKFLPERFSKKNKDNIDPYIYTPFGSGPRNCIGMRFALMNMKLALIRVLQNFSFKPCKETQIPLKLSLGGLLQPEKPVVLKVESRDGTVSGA

## CCc1c(N2CCN(C(=O)c3ncnc(C)c3O)CC2)c(=O)n2nc(C3=CCOCC3)nc2n1CC(=O)Nc1ccc(C(F)(F)F)cc1Cl [HRO761]
CYP3A4
  CYP3A4 TDI: No TDI
NUGC3
  GI50: ≥ 10000 nM
SW48 xenografts; HRO761 20mg/kg, day 0 post 1st dose
  Mean TVol (mm3): 247.56 mm3
SW48 xenografts; HRO761 20mg/kg, day 7 post 1st dose
  Mean TVol (mm3): 408.23 mm3
SW48 xenografts; HRO761 20mg/kg, day 14 post 1st dose
  Mean TVol (mm3): 343.04 mm3
SW48 xenografts; HRO761 20mg/kg, day 21 post 1st dose
  Mean TVol (mm3): 353.40 mm3
SW48 xenografts; HRO761 20mg/kg, day 28 post 1st dose
  Mean TVol (mm3): 598.05 mm3
SW48 xenografts; HRO761 20mg/kg, day 35 post 1st dose
  Mean TVol (mm3): 1006.91 mm3
SW48 xenografts; HRO761 20mg/kg, day 4 post 1st dose
  Mean TVol (mm3): 324.64 mm3
SW48 xenografts; HRO761 20mg/kg, day 11 post 1st dose
  Mean TVol (mm3): 389.58 mm3
SW48 xenografts; HRO761 20mg/kg, day 18 post 1st dose
  Mean TVol (mm3): 304.90 mm3
SW48 xenografts; HRO761 20mg/kg, day 25 post 1st dose
  Mean TVol (mm3): 411.31 mm3
SW48 xenografts; HRO761 20mg/kg, day 32 post 1st dose
  Mean TVol (mm3): 799.70 mm3
SW48 xenografts; HRO761 40mg/kg, day 0 post 1st dose, n=6
  Mean TVol (mm3): 170.74 mm3
SW48 xenografts; HRO761 40mg/kg, day 3 post 1st dose, n=6
  Mean TVol (mm3): 266.92 mm3
SW48 xenografts; HRO761 40mg/kg, day 7 post 1st dose, n=6
  Mean TVol (mm3): 238.47 mm3
SW48 xenografts; HRO761 40mg/kg, day 10 post 1st dose, n=6
  Mean TVol (mm3): 242.34 mm3
SW48 xenografts; HRO761 40mg/kg, day 14 post 1st dose, n=6
  Mean TVol (mm3): 187.67 mm3
SW48 xenografts; HRO761 40mg/kg, day 17 post 1st dose, n=6
  Mean TVol (mm3): 156.98 mm3
SW48 xenografts; HRO761 40mg/kg, day 21 post 1st dose, n=6
  Mean TVol (mm3): 121.57 mm3
SW48 xenografts; HRO761 40mg/kg, day 24 post 1st dose, n=6
  Mean TVol (mm3): 71.41 mm3
SW48 xenografts; HRO761 40mg/kg, day 28 post 1st dose, n=6
  Mean TVol (mm3): 43.54 mm3
SW48 xenografts; HRO761 40mg/kg, day 31 post 1st dose, n=6
  Mean TVol (mm3): 43.20 mm3
SW48 xenografts; HRO761 40mg/kg, day 35 post 1st dose, n=6
  Mean TVol (mm3): 52.04 mm3
SW48 xenografts; HRO761 40mg/kg, day 38 post 1st dose, n=6
  Mean TVol (mm3): 63.12 mm3
SW48 xenografts; HRO761 40mg/kg, day 43 post 1st dose, n=6
  Mean TVol (mm3): 108.93 mm3
SW48 xenografts; HRO761 40mg/kg, day 46 post 1st dose, n=6
  Mean TVol (mm3): 106.14 mm3
SW48 xenografts; HRO761 40mg/kg, day 49 post 1st dose, n=6
  Mean TVol (mm3): 165.61 mm3
SW48 xenografts; HRO761 40mg/kg, day 52 post 1st dose, n=6
  Mean TVol (mm3): 180.62 mm3
SW48 xenografts; HRO761 40mg/kg, day 56 post 1st dose, n=6
  Mean TVol (mm3): 250.37 mm3
SW48 xenografts; HRO761 40mg/kg, day 59 post 1st dose, n=6
  Mean TVol (mm3): 307.84 mm3
SW48 xenografts; HRO761 40mg/kg, day 63 post 1st dose, n=6
  Mean TVol (mm3): 385.98 mm3
SW48 xenografts; HRO761 40mg/kg, day 67 post 1st dose, n=6
  Mean TVol (mm3): 504.27 mm3
SW48 xenografts; HRO761 40mg/kg, day 70 post 1st dose, n=6
  Mean TVol (mm3): 521.42 mm3
SW48 xenografts; HRO761 40mg/kg, day 73 post 1st dose, n=6
  Mean TVol (mm3): 687.64 mm3
LS180
  GI50: 131 nM
IM95
  GI50: 255 nM
